In test [1] the test system is small mesenteric arteries. Briefly: Direct relaxation of U46619 pre-contracted small mesenteric arteries, concentration-response curves. More on the design: species or system Male Wistar rats. The procedure:
(§1) The small mesenteric arteries were prepared in the same way is described in example 1.
The small mesenteric arteries were pre-contracted with the thromboxane analogue, U46619 (4·10^−7 mol/L) and concentration-response curves for TG2 specific inhibitors, LDN-27219 (10^−8-10^−5 mol/L) and Z-DON (10^−8-3·10^−4 mol/L) were constructed. To study the role of the endothelial pathways in LDN-27219 relaxation, concentration-response curves were constructed for it in arteries whose endothelium had been removed mechanically by rubbing the lumen repeatedly with a human scalp hair.

Test [2] concerns small mesenteric arteries. Kind of test: Acetylcholine-induced endothelium-dependent relaxation of phenylephrine pre-contracted small mesenteric arteries, isometric myograph (ex vivo). More on the design: species or system Male Wistar rats. The procedure:
Small mesenteric arteries were mounted in microvascular myographs (Danish Myotechnology, Aarhus, Denmark) using two 40 μm wires and stretched to their optimal diameter for isometric tension recordings, which corresponded to 0.9 times the estimated internal diameter at 100 mmHg of transmural pressure. PSS solution in the myograph bath was heated to 37° C. and continuously bubbled with 5% CO2 in air to maintain pH (7.4). The vessel viability was tested at the beginning of each experiment by measuring the vasoconstrictor responses to a solution with a high K^+ concentration (KPSS), equivalent to PSS except that NaCl was exchanged for KCl on an equimolar basis, giving a final concentration of 123.7 mmol/L K^+ and the presence of endothelium was confirmed by addition of acetylcholine (ACh) (10^−5) after pre-constriction with noradrenaline (5·10^−6 mol/L), arteries with less than 75% of relaxation were discarded.
Mesenteric arteries from rats of different age were incubated with (10^−6 mol/L) LDN-27219 or vehicle for 25 minutes and pre-contracted with phenylephrine (Phe) (10^−5 mol/L). Then cumulative addition of acetylcholine (ACh) caused the relaxation of the mesenteric arteries and the concentration-response curves were constructed.
Rats of 5-7 weeks age, about 12 weeks age, and more than 30 weeks of age were tested respectively. The results of the isometric tension studies are shown in FIGS. 1, A), B) and C) respectively, each representing a different their age group.
as §1

Test [3] has as its system small mesenteric arteries. Kind of test: Acetylcholine-induced relaxation of small mesenteric arteries from healthy and diabetic BKS mice (ex vivo). More on the design: species or system male BKS(D)-Leprdb/JOrlRj mice. The procedure:
In these experiments, healthy control mice of different ages and diabetic adult mice were used and the relaxation measurements were performed as described in Example 1.
Healthy male BKS(D)-Leprdb/JOrlRj heterozygous mice between 14-16 and 24-25 weeks of age, and diabetic homozygous mice between 16-17 weeks of age were tested respectively. The results of the isometric tension studies are shown in FIGS. 2, A), B) and C) respectively.

The test system of test [4] is small subcutaneous arteries obtained from human biopsies. Kind of test: Acetylcholine-induced relaxation of human small subcutaneous arteries. The settings on record: LDN-27219 3·10^−6 mol/L; acetylcholine 10^−8-10^−5 mol/L. The procedure:
Human subcutaneous arteries were obtained from fat biopsies of the gluteal region from both male and female patients (30-70 years of age) with essential hypertension.
For ‘ex vivo’ studies, animals were randomly selected and euthanized by cervical dislocation and exanguination. The mesenteric arteries were immediately extracted and placed in 4° C. physiological saline solution (PSS, pH=7.4) of the following composition (mmol/L): 119 NaCl, 4.7 KCl, 1.18 KH2PO4, 1.17 MgSO4, 1.5 CaCl2), 24.9 NaHCO3, 0.026 EDTA and 5.5 glucose and small mesenteric arteries (internal diameters of 200-300 μm) were isolated. Human subcutaneous arteries (internal diameters of 300-400 μm) were dissected from the biopsies in the same conditions mentioned above for the mesenteric bed from rodents.
Small human subcutaneous arteries were obtained from fat biopsies from the gluteal region of hypertensive patients and prepared as described in Example 1. Concentration-response curves for LDN-27219 were constructed as described in Example 4 (FIG. 5B) and relaxation measurements were performed as described in Example 1.

The text below walks through data of US20210308138A1, “TISSUE TRANSGLUTAMINASE MODULATORS FOR MEDICINAL USE” (Aarhus Universitet, priority 2018, published 2021).

“Also recorded” adds a separate entry of the source.

Consider `NNC(=O)CSc1nc2scc(-c3ccccc3)c2c(=O)n1-c1ccccc1` [LDN-27219], for which, in test [1] (U46619 4·10^−7 mol/L, LDN-27219 10^−8-10^−5 mol/L, Z-DON 10^−8-3·10^−4 mol/L, endothelium intact), the “relaxation of U46619 pre-contracted arteries” value is listed as “induced relaxation”. Moreover, in test [1] (endothelium removed mechanically), the “relaxation of U46619 pre-contracted arteries without an endothelium layer” value was “significantly reduced relaxation”. Also, in test [2] (LDN-27219 10^−6 mol/L with VA-5 10^−5 mol/L, ≈12 week rats), the “LDN-27219 potentiation of ACh-induced vasodilation in presence of irreversible TG2 inhibitor” value is given as “reduced or completely inhibited”. For the same compound, the “endothelium-dependent relaxation induced by acetylcholine, compared to vehicle” value in test [2] (LDN-27219 10^−6 mol/L, 25 min incubation, Phe 10^−5 mol/L pre-contraction, rats of different age) was “more potent endothelium-dependent relaxation; also recorded: increased the response to ACh”; in test [3] (LDN-27219 3·10^−6 mol/L, healthy and diabetic mice), “more potent endothelium-dependent relaxation”. In addition, the “age dependence of the effect on acetylcholine-induced relaxation” value in test [2] (LDN-27219 10^−6 mol/L, rats 6-7, ≈12 and >30 weeks old) was “more pronounced in old rats, than in young rats”. Moreover, the “dependence of the effect on age and diabetes” value in test [3] (healthy mice 14-16 and 24-25 weeks, diabetic mice 16-17 weeks) was “more pronounced in older mice, and particularly pronounced in diabetic mice”. Besides, the “endothelium-derived relaxation induced by acetylcholine, compared to vehicle” value in test [4] is reported as “improves the endothelium-derived relaxation”.
